Experimental data as given in patent US10695425B2, “Methods for treating and/or limiting development of diabetes in subjects with amyotrophic lateral sclerosis” (Biocrine AB, priority 2015, dated 2020).

System: αTC1-6 cells
Assay: K+ depolarization-induced [Ca2+]i response in αTC1-6 cells (fura-2)
Type: cell-based, mouse
Settings: αTC1-6 cells pre-exposed to specific Ca2+ channel blocker
Protocol: A glucose concentration of 11 mM was used for islet stimulation. After loading, islets and cells on the glass coverslips were transferred to an open perifusion chamber maintained at 37° C. and [Ca^2+]i measured as the 340/380 nm ratio. The light source was equipped with a xenon arc lamp and an integrated shutter (Lambda DG-4, Sutter instrument company), and coupled to the microscope (Olympus ix 71) via a liquid light guide. The 16-bit grayscale images with a binning of 1×1 were captured every 1 s (exposure time ranged from 100 to 300 ms) with a cooled EM-CCD camera (ImagEM X2, Hamamatsu). The camera and shutter were controlled by METAFLUOR® (Molecular Devices) software, which was also used for analysis. Cells with bright [Ca^2+]i signal defined the regions of interest (ROIs). ROI signals were calculated by subtracting background noise signal.

For w-agatoxin TK, the “blocker-sensitive share of K+ depolarization-induced [Ca2+]i increase” value was “considerable number”.
